Measured values from publication PMC7884679 (British Journal of Cancer, 2020).
Entries after “also recorded” stand apart in the source; their conditions may differ.

Experiments:
[1] = target: T1, human cyclooxygenase 1 (Homo sapiens, UniProt P23219); test: Platelet aggregation in aspirin-naïve patients at the RP2D; format: in vivo; conditions: aspirin-naïve cohort, 400 mg BID
T1 construct: endogenous in cells; host or cells: platelets of aspirin-naïve patients treated at the RP2D

[2] = test system: platelet aggregation; conditions: preclinical data; cited from earlier work
[3] = test system: patients with advanced solid tumours; test: Dose escalation 3 + 3: DLT, MTD, RP2D; format: in vivo
From the text: Dose escalation was by use of a standard ‘3 + 3’ design, based on the presence/absence of dose-limiting toxicities (DLTs). […] The starting dose was considered to have acceptable safety and to be in the range of the biologically active dose based on in vivo pharmacology data.[7]
The MTD was defined as the dose level below the dose at which two out of six patients experienced a DLT. Once the MTD was established, the RP2D was to be defined by the Safety Monitoring Committee (SMC), either at the MTD level or below, depending on the available safety, efficacy, PK and PD data.
(§1) In addition, a DLT could be identified by the SMC as any TEAE that impaired daily function or abnormality occurring in patients treated with peposertib at any time during the dose escalation part of the study.

[4] = clinical; conditions: human, in vivo; for AUC(0-t): AUC0–12; for AUC(0-inf): AUC0–∞; for Vd/F: Vz/f
Method: (§2) Safety was assessed through the recording, reporting and analysis of baseline medical conditions, AEs, physical examination findings (including vital signs and monitoring for bleeding), laboratory tests, ECOG PS and 12-lead electrocardiograms. […] PK was assessed using blood samples collected pre-treatment and on-treatment. […] Tumour response was evaluated according to RECIST (v1.1). Target and non-target lesions were measured by computed tomography or magnetic resonance imaging every 6 weeks.
The cut-off for the final analysis was when the last patient completed the dose-escalation phase (29 June 2017). The All Patients Analysis Set comprised all patients who provided informed consent (screening failures plus enrolled patients) and was used to describe patient disposition and deaths. […] The Efficacy Analysis Set, including patients who received at least one treatment dose, was used for all efficacy summaries. […] The Biomarker/Pharmacogenomics Analysis Set included patients who received at least the first dose of study drug and provided at least one pre-dose sample and one post-dose sample.

[5] = test system: DNA-PK; conditions: preclinical ref 6–8; cited from earlier work
[6] = test system: repair of radiation- or chemotherapy-induced DNA DSBs; conditions: preclinical studies ref 6–10; cited from earlier work
[7] = test system: phosphorylation of AKT; design: method as in PMID 32220971; conditions: preclinical experiments ref 8; cited from earlier work
[8] = test system: advanced solid tumours; test: Tumour response by RECIST v1.1; format: in vivo, human
Method: as §2
(§3) TEAEs were summarised according to Medical Dictionary for Regulatory Activities (v20.0) preferred term and system organ class. All statistical analyses (except for PK) were performed using SAS 9.1.3 or higher. Tumour assessments, based on investigator evaluations of target, non-target and new lesions according to RECIST (v1.1), were used to derive the best overall response. Trial data were summarised by dose level.

[9] = test system: PI3K lipid kinases; design: method as in PMID 32220971; conditions: cited from earlier work
[10] = test system: patients with advanced solid tumours; test: Safety and tolerability: treatment-emergent adverse events (CTCAE v4.03); format: in vivo
Method: as §1, §2, §3

T1 sequence (P23219 24-599): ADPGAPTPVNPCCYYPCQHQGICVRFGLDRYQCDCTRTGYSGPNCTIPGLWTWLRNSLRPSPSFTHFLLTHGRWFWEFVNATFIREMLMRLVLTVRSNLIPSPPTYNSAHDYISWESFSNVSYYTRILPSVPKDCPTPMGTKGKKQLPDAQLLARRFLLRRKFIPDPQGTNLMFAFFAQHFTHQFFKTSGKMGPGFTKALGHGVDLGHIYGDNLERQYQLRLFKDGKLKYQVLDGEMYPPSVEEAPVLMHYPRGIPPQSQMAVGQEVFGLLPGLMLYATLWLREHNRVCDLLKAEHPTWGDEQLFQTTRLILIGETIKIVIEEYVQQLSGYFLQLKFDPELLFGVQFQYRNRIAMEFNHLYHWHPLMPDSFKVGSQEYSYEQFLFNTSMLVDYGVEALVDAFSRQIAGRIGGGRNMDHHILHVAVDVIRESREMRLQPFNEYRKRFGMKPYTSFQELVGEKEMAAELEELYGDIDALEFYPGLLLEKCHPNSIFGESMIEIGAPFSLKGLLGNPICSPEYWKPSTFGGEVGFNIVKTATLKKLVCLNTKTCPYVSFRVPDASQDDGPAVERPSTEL

COc1ccc([C@@H](O)c2cc(-c3ncnc4cc(N5CCOCC5)ccc34)c(F)cc2Cl)nn1 [Peposertib, peposertib]
effect on platelet aggregation [1]: very weak effect; also recorded: only a weak effect | inhibition of platelet aggregation [2]: reversible inhibition of platelet aggregation at micromolar concentrations | maximum-tolerated dose (MTD) ([3]; dose escalation up to 400 mg BID): not reached | recommended phase 2 dose (RP2D) ([3]; human, in vivo, 21 days): 400 mg BID | Tmax [4]: 1.5 h | geometric mean percent coefficient of variation (%CV) for Cmax [4]: 15.5–117% | AUC(0-t) ([4]; 100 mg): 2290 ng·h/mL | AUC(0-inf) ([4]; 100 mg): 2920 ng·h/mL | Cmax ([4]; 100 mg): 440 ng/mL | Vd/F ([4]; 100 mg): 276 L | half-life ([4]; 100 mg, t1/2): 5.5 h | Tmax ([4]; 100 mg, tmax): 1.8 h | AUC(0-t) ([4]; 150 mg): 3040 ng·h/mL | AUC(0-inf) ([4]; 150 mg): 3770 ng·h/mL | Cmax ([4]; 150 mg): 695 ng/mL | Vd/F ([4]; 150 mg): 304 L | half-life ([4]; 150 mg, t1/2): 5.1 h | Tmax ([4]; 200 mg, tmax): 1.4 h | Vd/F ([4]; 300 mg): 662 L | half-life ([4]; 300 mg, t1/2): 4.7 h | Tmax ([4]; 300 mg, tmax): 1.9 h | AUC(0-inf) ([4]; 400 mg): 4140 ng·h/mL | Tmax ([4]; 400 mg, tmax): 2.4 h | half-life ([4]; mean elimination half-life): ~5.5 h | Tmax ([4]; po, median tmax): 1.1 to 2.5 h | concentrations blocking DNA-PK kinase activity [5]: sub-nanomolar | synergy with radiotherapy and DSB-inducing chemotherapies (e.g. etoposide, doxorubicin) [6]: demonstrated synergy | inhibition of the phosphorylation of AKT [7]: only moderate inhibition | patients with stable disease for ≥12 weeks ([8]; RECIST v1.1): seven | objective tumour responses (complete or partial) ([8]; RECIST v1.1, all doses): No objective tumour responses | duration of stable disease ([8]; one patient, metastatic hepatocellular carcinoma, prior progression on sorafenib, at data cut-off): 69 weeks | patients not evaluable ([8]; tumour assessment at screening only): 16% | time remained on treatment ([8]; two patients (metastatic renal cell carcinoma; tonsillar squamous cell carcinoma), 400 mg BID): 36 weeks | potency on PI3K lipid kinases ([9]; compared with DNA-PK, preclinical studies ref 8): significantly lower potency | potency against DNA-PK versus other PI3K and PI3K-related family members ([9]; preclinical ref 8): substantially greater | Number of patients with: Any TEAE leading to death ([10]; 100/QD n = 3): 0 (0) n (%) | Number of patients with: Any peposertib related TEAE leading to death ([10]; 100/QD n = 3): 0 (0) n (%) | Number of patients with: Any TEAE leading to death ([10]; 150/BID n = 3): 0 (0) n (%) | Number of patients with: Any peposertib related TEAE leading to death ([10]; 150/BID n = 3): 0 (0) n (%) | Number of patients with: Any TEAE leading to death ([10]; 200/BID n = 3): 0 (0) n (%) | Number of patients with: Any peposertib related TEAE leading to death ([10]; 200/BID n = 3): 0 (0) n (%) | Number of patients with: Any TEAE leading to death ([10]; 200/QD n = 3): 0 (0) n (%) | Number of patients with: Any peposertib related TEAE leading to death ([10]; 200/QD n = 3): 0 (0) n (%) | Number of patients with: Any TEAE leading to death ([10]; 300/BID n = 9): 0 (0) n (%) | Number of patients with: Any peposertib related TEAE leading to death ([10]; 300/BID n = 9): 0 (0) n (%) | Number of patients with: Any TEAE leading to death ([10]; 400/BID (RP2D) n = 6): 0 (0) n (%) | Number of patients with: Any peposertib related TEAE leading to death ([10]; 400/BID (RP2D) n = 6): 0 (0) n (%) | Number of patients with: Any TEAE leading to death ([10]; 400/BID n = 4): 1 (25) n (%) | Number of patients with: Any peposertib related TEAE leading to death ([10]; 400/BID n = 4): 0 (0) n (%) | Number of patients with: Any TEAE leading to death ([10]; Total N = 31): 1 (3) n (%) | Number of patients with: Any peposertib related TEAE leading to death ([10]; Total N = 31): 0 (0) n (%) | Grade 3 peposertib-related maculo-papular rash, patients ([10]; human, in vivo): 4 n | Grade 3 peposertib-related nausea, patients ([10]; human, in vivo): 2 n | Number of patients with: Any peposertib-related Grade ≥4 TEAE ([10]; human, in vivo): 0 (0) n (%) | TEAE constipation, patients ([10]; human, in vivo): 10 n | TEAE fatigue, patients ([10]; human, in vivo): 14 n | TEAE nausea, patients ([10]; human, in vivo): 17 n | TEAE pyrexia, patients ([10]; human, in vivo): 11 n | Treatment-related TEAE: Constipation, Grade 3 ([10]; human, in vivo): 0 (0) n (%) | Treatment-related TEAE: Decreased appetite, Grade 3 ([10]; human, in vivo): 0 (0) n (%) | Treatment-related TEAE: Diarrhoea, Grade 3 ([10]; human, in vivo): 0 (0) n (%) | Treatment-related TEAE: Dry mouth, Grade 3 ([10]; human, in vivo): 0 (0) n (%) | Treatment-related TEAE: Periorbital oedema, Grade 3 ([10]; human, in vivo): 0 (0) n (%) | Treatment-related TEAE: Vomiting, Grade 3 ([10]; human, in vivo): 0 (0) n (%) | patients with a serious TEAE ([10]; human, in vivo): 55% | patients with at least one TEAE ([10]; human, in vivo): 31 patients | patients with at least one TEAE of Grade ≥3 ([10]; human, in vivo): 68% | patients with peposertib-related Grade 3 TEAEs ([10]; human, in vivo): 23% | peposertib-related Grade 4 TEAEs ([10]; human, in vivo): no peposertib-related Grade 4 TEAEs | deaths considered treatment-related ([10]; three patients died due to disease progression): None
